Reference: US10869481B2, “Method for controlling nematode pests” (Syngenta Participations AG, priority 2014, dated 2020)

Columns and labels:
Type in all cases: in vivo, Heterodera schachtii
[1] = test system: sugar beet nematode (SBN); experiment: Yield response field trials, INVICTA susceptible sugar beet seeds, seed treatment
Protocol: (§1) The yield response study illustrates the unexpected increase in yield achieved by using a nematode-antagonistic biocontrol agent with SBN resistant or tolerant varieties. Multiple field trials were conducted across Germany, Czech Republic and Denmark. The results of nine different trials are presented below utilizing seed treatments on sugar beet seeds to combat nematodes.
(§2) The tests presented below were run on both susceptible and SBN tolerant varieties of sugar beet seeds. In particular, the susceptible variety is known by the trade name INVICTA and the tolerant variety is known by the trade name CACTUS. Each trial, on both the susceptible and tolerant variety, was run with a Control check that included no nematicide, a treatment on the seed with Pasteuria nishizawae at about 1×10^6 spores/seed, a treatment on the seed with Pasteuria nishizawae at about 1×10^7 spores/seed, and a treatment on the seed that included a commercial soil applied standard nematicide.
(§3) The results of trails are presented below where yield data has been averaged.
INVICTA Susceptible Sugar Beet Seeds

[2] = test system: sugar beet nematode (SBN); experiment: Yield response field trials, CACTUS tolerant sugar beet seeds, seed treatment; conditions: for White Sugar yield/ha: CACTUS tolerant sugar beet, average of nine field trials
Protocol: as §1, §2, §3
CACTUS Tolerant Sugar Beet Seeds

[3] = test system: sugar beet nematode (SBN); experiment: Root and sugar yield field trials, susceptible sugar beet seeds, seed treatment
Protocol: (§4) The root and sugar yield response study illustrates the unexpected increase in root and sugar yield achieved by using a nematode-antagonistic biocontrol agent with SBN resistant or tolerant varieties. Multiple field trials were conducted across Nebraska, Colorado, and Idaho. The results of four different trials are presented below utilizing seed treatments on sugar beet seeds to combat nematodes.
(§5) The tests presented below were run on both susceptible and SBN tolerant varieties of sugar beet seeds. Each trial, on both the susceptible and tolerant variety, was run with a Control check that included no nematicide, a treatment on the seed with Pasteuria nishizawae at about 5×10^6 spores/seed, a treatment on the seed with Pasteuria nishizawae at about 1×10^7 spores/seed, a treatment on the seed with Pasteuria nishizawae at about 2×10^7 spores/seed and a treatment on the seed with Pasteuria nishizawae at about 4×10^7 spores/seed.
as §3
Susceptible Sugar Beet Seeds

[4] = test system: sugar beet nematode (SBN); experiment: Root and sugar yield field trials, tolerant sugar beet seeds, seed treatment; conditions: average of four field trials
Protocol: as §4, §5, §3
Tolerant Sugar Beet Seeds

[5] = 1 × 10^7 spores/seed, average of four field trials
[6] = 2 × 10^7 spores/seed, average of four field trials
[7] = 4 × 10^7 spores/seed, average of four field trials

In the case of Pasteuria nishizawae, the “White Sugar yield/ha” value ([1]; seed treatment 1 × 10^6 spores/seed, average of nine field trials (Germany, Czech Republic, Denmark)) is reported as 11.09 /ha, the “White Sugar yield/ha” value ([1]; seed treatment 1 × 10^7 spores/seed, average of nine field trials) is reported as 11.20 /ha and the “White Sugar yield/ha” value ([2]; seed treatment 1 × 10^6 spores/seed) is reported as 12.65 /ha. For the same substance, the “White Sugar yield/ha” value ([2]; seed treatment 1 × 10^7 spores/seed) was 12.93 /ha, the “yield compared with commercial standards” value ([2]; tolerant varieties treated with Pasteuria, statement in words) was “showed an increase over commercial standards” and the “Root Yield” value [3, 5] was 19.9 Ton/Acre. For the same substance, the “White Sugar” value [3, 5] was 2.5 Ton/Acre, the “Root Yield” value [3, 6] was 19.8 Ton/Acre and the “White Sugar” value [3, 6] was 2.3 Ton/Acre. The “Root Yield” value [3, 7] was 19.5 Ton/Acre, the “White Sugar” value [3, 7] was 2.4 Ton/Acre and the “Root Yield” value ([3]; 5 × 10^6 spores/seed, average of four field trials) was 17.4 Ton/Acre. The “White Sugar” value ([3]; 5 × 10^6 spores/seed, average of four field trials (Nebraska, Colorado, Idaho)) was 2.0 Ton/Acre, the “Root Yield” value ([4]; 1 × 10^7 spores/seed) was 27.2 Ton/Acre and the “White Sugar” value ([4]; 1 × 10^7 spores/seed) was 3.5 Ton/Acre. The “Root Yield” value ([4]; 2 × 10^7 spores/seed) was 27.2 Ton/Acre, the “White Sugar” value ([4]; 2 × 10^7 spores/seed) was 3.7 Ton/Acre and the “Root Yield” value ([4]; 4 × 10^7 spores/seed) was 26.7 Ton/Acre. The “White Sugar” value ([4]; 4 × 10^7 spores/seed) was 3.5 Ton/Acre, the “Root Yield” value ([4]; 5 × 10^6 spores/seed) was 26.1 Ton/Acre and the “White Sugar” value ([4]; 5 × 10^6 spores/seed) was 3.6 Ton/Acre.
